Data from patent US8501936B2 (priority 2009, dated 2013).
Read-outs that look alike come from different tables or passages of the source.

Experiments:
human FAK [1] = biological target: T1, human FAK (Homo sapiens (Human), UniProt Q05397); settings: read-out: FAK IC50
human JAK2 [2] = biological target: T2, human JAK2 (Homo sapiens (Human), UniProt O60674); experiment: biochemical
human FAK [3] = biological target: T1, human FAK; experiment: biochemical
human JAK2 [4] = biological target: T2, human JAK2; settings: read-out: JAK2 IC50

T1 sequence (Q05397 whole entry): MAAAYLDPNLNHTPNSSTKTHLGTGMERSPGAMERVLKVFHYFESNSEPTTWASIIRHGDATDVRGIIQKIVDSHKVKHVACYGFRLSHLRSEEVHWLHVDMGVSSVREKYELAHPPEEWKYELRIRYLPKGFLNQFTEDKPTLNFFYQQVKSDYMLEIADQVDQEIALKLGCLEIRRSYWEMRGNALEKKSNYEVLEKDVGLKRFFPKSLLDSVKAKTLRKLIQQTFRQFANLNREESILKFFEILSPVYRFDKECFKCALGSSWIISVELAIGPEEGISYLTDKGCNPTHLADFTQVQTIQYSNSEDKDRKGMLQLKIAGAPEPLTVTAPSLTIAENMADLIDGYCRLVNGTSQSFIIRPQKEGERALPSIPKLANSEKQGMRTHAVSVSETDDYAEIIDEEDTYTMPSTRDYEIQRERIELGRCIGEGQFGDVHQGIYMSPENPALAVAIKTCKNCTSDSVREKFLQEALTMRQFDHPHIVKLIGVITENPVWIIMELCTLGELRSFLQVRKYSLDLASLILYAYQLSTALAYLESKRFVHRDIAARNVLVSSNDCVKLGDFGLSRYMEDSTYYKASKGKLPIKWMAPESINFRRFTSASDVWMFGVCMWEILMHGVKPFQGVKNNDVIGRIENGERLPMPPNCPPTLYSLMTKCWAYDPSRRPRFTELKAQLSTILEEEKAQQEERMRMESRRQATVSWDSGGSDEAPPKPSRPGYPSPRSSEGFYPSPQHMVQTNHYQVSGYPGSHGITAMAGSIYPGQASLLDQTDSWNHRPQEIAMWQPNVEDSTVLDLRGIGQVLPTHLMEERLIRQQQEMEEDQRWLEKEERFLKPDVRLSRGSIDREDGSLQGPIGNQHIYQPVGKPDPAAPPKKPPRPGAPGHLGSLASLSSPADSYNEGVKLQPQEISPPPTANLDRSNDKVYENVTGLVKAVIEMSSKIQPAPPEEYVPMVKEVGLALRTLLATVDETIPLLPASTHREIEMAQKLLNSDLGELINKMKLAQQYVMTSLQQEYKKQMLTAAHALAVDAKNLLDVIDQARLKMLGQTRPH
T2 sequence (O60674 815-1132): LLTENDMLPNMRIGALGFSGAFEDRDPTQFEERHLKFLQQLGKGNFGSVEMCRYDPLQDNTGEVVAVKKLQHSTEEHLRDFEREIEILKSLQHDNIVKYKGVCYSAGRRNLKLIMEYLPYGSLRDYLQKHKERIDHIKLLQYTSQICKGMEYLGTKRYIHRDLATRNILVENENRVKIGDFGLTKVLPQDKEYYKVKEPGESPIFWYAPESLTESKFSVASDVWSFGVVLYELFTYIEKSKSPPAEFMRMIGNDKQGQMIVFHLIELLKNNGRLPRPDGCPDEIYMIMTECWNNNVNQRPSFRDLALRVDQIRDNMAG

Q: `CS(=O)(=O)c1ccc(-c2cccn3nc(Nc4cccc(N5CCC(N6CCOCC6)CC5)c4)nc23)cc1` [Example 57, [8-(4-Methanesulfonyl-phenyl)-[1,2,4]triazolo[1,5-a]pyridin-2-yl]-[3-(4-morpholin-4-yl-piperidin-1-yl)-phenyl]-amine] was tested. Which IC50 (human FAK [1]) did it give?
A: The IC50 was 1180 nM.

Q: And the IC50 (human JAK2 [2])?
A: The IC50 was 0.5 nM.

Q: What does the source list for `CS(=O)(=O)c1ccc(-c2cccn3nc(Nc4cccc([C@@H]5CCNC[C@@H]5O)c4)nc23)cc1` (racemic) [Example 188, (±)-(cis)-4-{3-[8-(4-Methanesulfonyl-phenyl)-[1,2,4]triazolo[1,5-a]pyridin-2-ylamino]-phenyl}-piperidin-3-ol]?
A: IC50 (human FAK [3]): 1940 nM; IC50 (human JAK2 [2]): 1.43 nM

Q: Which results are given for `c1cncc(-c2cccn3nc(Nc4ccc(N5CCOCC5)cc4)nc23)c1` [Example 6, (4-Morpholin-4-yl-phenyl)-(8-pyridin-3-yl-[1,2,4]triazolo[1,5-a]pyridin-2-yl)-amine]?
A: IC50 (human JAK2 [4]): 25.9 nM; IC50 (human FAK [1]): 3000 nM

Q: With `FC(F)COc1ccc(Cl)cc1-c1cccn2nc(Nc3ccc4c(c3)CCNCC4)nc12` [Example 377, {8-[5-Chloro-(2,2-difluoro-ethoxy)-phenyl]-[1,2,4]triazolo[1,5-a]pyridin-2-yl}-(2,3,4,5-tetrahydro-1H-3-benzazepin-7-yl)-amine] as the compound, how does the IC50 (human JAK2 [4]) read?
A: Its IC50 is 44 nM.

Q: And the IC50 (human FAK [1])?
A: The IC50 was 443 nM.

Q: Which IC50 (human JAK2 [4]) does the source give for `CN1CCC(c2cccc(Nc3nc4c(-c5ccc(S(C)(=O)=O)cc5)cccn4n3)c2)CC1` [Example 61, [8-(4-Methanesulfonyl-phenyl)-[1,2,4]triazolo[1,5-a]pyridin-2-yl]-[3-(1-methyl-piperidin-4-yl)-phenyl]-amine] here?
A: The IC50 was 0.7 nM.

Q: What about the IC50 (human FAK [1]) of the same compound?
A: The IC50 was 265 nM.

Q: With `COc1ccc(CNc2cccn3nc(Nc4cccc(N5CCN(C)CC5)c4)nc23)cc1` [Example 393, N(8)-(4-Methoxy-benzyl)-N(2)-[3-(4-methyl-piperazin-1-yl)-phenyl]-[1,2,4]triazolo[1,5-a]pyridine-2,8-diamine] as the compound, how does the IC50 (human JAK2 [4]) read?
A: The IC50 was 10000 nM.

Q: And the IC50 (human FAK [1])?
A: The IC50 was 10000 nM.

Q: Which results are given for `COc1ncccc1-c1cccn2nc(Nc3ccc(C4CCNCC4)cc3)nc12` [Example 272]?
A: IC50 (human JAK2 [4]): 377 nM; IC50 (human FAK [1]): 10000 nM

Q: How did the IC50 (human JAK2 [4]) turn out when `COc1ncccc1-c1cccn2nc(Nc3ccc4ncccc4c3)nc12` [Example 274, [8-(2-Methoxy-pyridin-3-yl)-[1,2,4]triazolo[1,5-a]pyridine-2-yl]-quinolin-6-yl-amine] was run?
A: Its IC50 is 192 nM.

Q: And the IC50 (human FAK [1])?
A: The IC50 was 10000 nM.

Q: For `CN1CCN(c2ccc(Nc3nc4c(-c5ccc(S(C)(=O)=O)cc5)cccn4n3)cc2)CC1` [Example 32, [8-(4-Methanesulfonyl-phenyl)-[1,2,4]triazolo[1,5-a]pyridin-2-yl]-[4-(4-methyl-piperazin-1-yl)-phenyl]-amine], which IC50 (human JAK2 [4]) is on record?
A: Its IC50 is 2.4 nM.

Q: What about the IC50 (human FAK [1]) of the same compound?
A: The IC50 was 410 nM.

Q: Which results are given for `CS(=O)(=O)c1ccc(-c2cccc3nc(Nc4cccc(S(C)(=O)=O)c4)nn23)cc1` [Example 94, (3-Methanesulfonyl-phenyl)-[5-(4-methanesulfonyl-phenyl)-[1,2,4]triazolo[1,5-a]pyridin-2-yl]-amine]?
A: IC50 (human JAK2 [4]): 9.3 nM; IC50 (human FAK [1]): 3000 nM

Q: How did the IC50 (human JAK2 [4]) turn out when `CN1CCN(Cc2cccc(Nc3nc4cccc(-c5ccc(S(C)(=O)=O)cc5)n4n3)c2)CC1` [Example 118, [5-(4-Methanesulfonyl-phenyl)-[1,2,4]triazolo[1,5-a]pyridin-2-yl]-[3-(4-methyl-piperazin-1-ylmethyl)-phenyl]-amine] was run?
A: The IC50 was 1.43 nM.

Q: And the IC50 (human FAK [1])?
A: The IC50 was 2860 nM.

Q: `CN1CCN(c2ccc(Nc3nc4cccc(-c5ccc(NS(C)(=O)=O)cc5)n4n3)cc2)CC1` [Example 84, N-(4-{2-[4-(4-Methyl-piperazin-1-yl)-phenylamino]-[1,2,4]triazolo[1,5-a]pyridin-5-yl}-phenyl)-methanesulfonamide] was tested. Which IC50 (human JAK2 [4]) did it give?
A: Its IC50 is 2.8 nM.

Q: What about the IC50 (human FAK [1]) of the same compound?
A: Its IC50 is 2280 nM.

Q: For `COc1ccc(C(F)(F)F)cc1-c1cccc2nc(Nc3ccc4c(c3)CCN(CC(=O)N(C)C)CC4)nn12` [Example 237], which IC50 (human JAK2 [4]) is on record?
A: The IC50 was 53.9 nM.

Q: And the IC50 (human FAK [1])?
A: The IC50 was 714 nM.

Q: What does the source list for `CN1Cc2ccc(Nc3nc4c(NCc5cccnc5N(C)S(C)(=O)=O)cccn4n3)cc2C1` [Example 166, N-Methyl-N-(3-{[2-(2-methyl-2,3-dihydro-1H-isoindol-5-ylamino)-[1,2,4]triazolo[1,5-a]pyridin-8-ylamino]-methyl}-pyridin-2-yl)-methanesulfonamide]?
A: IC50 (human JAK2 [4]): 12.8 nM; IC50 (human FAK [1]): 48.1 nM

Q: Which IC50 (human JAK2 [4]) does the source give for `CN1CCN(c2cccc(Nc3nc4c(OCc5cccc(Cl)c5)cccn4n3)c2)CC1` [Example 261, [8-(3-Chloro-benzyloxy)-[1,2,4]triazolo[1,5-a]pyridin-2-yl]-[3-(4-methyl-piperazin-1-yl)-phenyl]-amine] here?
A: The IC50 was 99.5 nM.

Q: And the IC50 (human FAK [1])?
A: Its IC50 is 1590 nM.

Q: How did the IC50 (human JAK2 [4]) turn out when `CS(=O)(=O)CCN1CCc2ccc(Nc3nc4c(-c5cc(C(F)(F)F)ccc5Cl)cccn4n3)cc2CC1` [Example 268, [8-(2-Chloro-5-trifluoromethyl-phenyl)-[1,2,4]triazolo[1,5-a]pyridin-2-yl]-[3-(2-methanesulfonyl-ethyl)-2,3,4,5-tetrahydro-1H-benzo[d]azopin-7-yl]-amine] was run?
A: Its IC50 is 16.8 nM.

Q: And the IC50 (human FAK [1])?
A: The IC50 was 999 nM.

Q: How did the IC50 (human JAK2 [4]) turn out when `COc1cccc(CNc2cccn3nc(Nc4ccnc(C)c4)nc23)c1` [Example 397, N(8)-(3-Methoxy-benzyl)-N(2)-(2-methyl-pyridin-4-yl)-[1,2,4]triazolo[1,5-a]pyridine-2,8-diamine] was run?
A: The IC50 was 592 nM.

Q: And the IC50 (human FAK [1])?
A: Its IC50 is 10000 nM.

Q: How did the IC50 (human JAK2 [4]) turn out when `CN(c1ncccc1Nc1cccn2nc(Nc3ccc(OCCN4CCCC4)cc3)nc12)S(C)(=O)=O` [Example 132, N-Methyl-N-(3-{2-[4-(2-pyrrolidin-1-yl-ethoxy)-phenylamino]-[1,2,4]triazolo[1,5-a]pyridin-8-ylamino}-pyridin-2-yl)-methanesulfonamide] was run?
A: The IC50 was 33.1 nM.

Q: And the IC50 (human FAK [1])?
A: Its IC50 is 3000 nM.

Q: With `CN(c1ncccc1CNc1cccn2nc(Nc3cccc(S(C)(=O)=O)c3)nc12)S(C)(=O)=O` [Example 135, N-(3-{[2-(3-Methanesulfonyl-phenylamino)-[1,2,4]triazolo[1,5-a]pyridin-8-ylamino]-methyl}-pyridin-2-yl)-N-methyl-methanesulfonamide] as the compound, how does the IC50 (human JAK2 [4]) read?
A: Its IC50 is 77.8 nM.

Q: What about the IC50 (human FAK [1]) of the same compound?
A: Its IC50 is 215 nM.

Q: Which IC50 (human JAK2 [4]) does the source give for `CN(C)C(=O)CN1CCC(c2ccc(Nc3nc4c(-c5ccc[nH]c5=O)cccn4n3)cc2)CC1` [Example 275, N,N-Dimethyl-2(4-{4-[8-(2-oxo-1,2-dihydro-pyridin-3-yl)-[1,2,4]triazolo[1,5-a]pyridine-2-ylamino]-phenyl}-piperidin-1-yl)-acetamide] here?
A: Its IC50 is 270 nM.

Q: And the IC50 (human FAK [1])?
A: The IC50 was 2000 nM.

Q: With `CN1CCN(c2ccc(Nc3nc4c(-c5ccc(S(C)(=O)=O)cc5)cc(F)cn4n3)cc2)CC1` [Example 106, [6-Fluoro-8-(4-methanesulfonyl-phenyl)-[1,2,4]triazolo[1,5-a]pyridin-2-yl]-[4-(4-methyl-piperazin-1-yl)-phenyl]-amine] as the compound, how does the IC50 (human JAK2 [4]) read?
A: Its IC50 is 31.6 nM.

Q: And the IC50 (human FAK [1])?
A: Its IC50 is 3000 nM.

Q: With `CN(Cc1ccccc1CNc1cccn2nc(Nc3ccc(OCCN4CCCC4)cc3)nc12)S(C)(=O)=O` [Example 158, N-Methyl-N-[2-({2-[4-(2-pyrrolidin-1-yl-ethoxy)-phenylamino]-[1,2,4]triazolo[1,5-a]pyridin-8-ylamino}-methyl)-benzyl]-methanesulfonamide] as the compound, how does the IC50 (human JAK2 [4]) read?
A: The IC50 was 97.5 nM.

Q: What about the IC50 (human FAK [1]) of the same compound?
A: Its IC50 is 276 nM.

Q: With `CN(C)C(=O)CN1CCc2ccc(Nc3nc4c(-c5cc(C(F)F)ccc5OCC(F)F)cccn4n3)cc2CC1` [Example 385, 2-(7-{8-[2-(2,2-difluoro-ethoxy)-5-difluoromethyl-phenyl]-[1,2,4]triazolo[1,5-a]pyridin-2-ylamino}-1,2,4,5-tetrahydro-3-benzazepin-3-yl)-N,N-dimethyl-acetamide] as the compound, how does the IC50 (human JAK2 [4]) read?
A: Its IC50 is 270 nM.

Q: And the IC50 (human FAK [1])?
A: Its IC50 is 1120 nM.

Q: Which results are given for `CS(=O)(=O)c1ccc(-c2cccn3nc(Nc4ccc5c(c4)CCC(N4CCOCC4)CC5)nc23)cc1` (stereo not shown) [Example 145, [8-(4-Methanesulfonyl-phenyl)-[1,2,4]triazolo[1,5-a]pyridin-2-yl]-(7-morpholin-4-yl-6,7,8,9-tetrahydro-5H-benzocyclohepten-2-yl)-amine]?
A: IC50 (human JAK2 [4]): 1.55 nM; IC50 (human FAK [1]): 671 nM

Q: What does the source list for `CN(c1ccccc1CNc1cccn2nc(Nc3ccc4c(c3)CCC(N3CCOCC3)CC4)nc12)S(C)(=O)=O` (stereo not shown) [Example 200, N-Methyl-N-(2-{[2-(7-morpholin-4-yl-6,7,8,9-tetrahydro-5H-benzocyclohepten-2-ylamino)-[1,2,4]triazolo[1,5-a]pyridin-8-ylamino]-methyl}-phenyl)-methanesulfonamide]?
A: IC50 (human JAK2 [4]): 134 nM; IC50 (human FAK [1]): 18.2 nM

Q: What does the source list for `CN1CCN(C2CCN(c3cccc(Nc4nc5c(-c6ccc(S(C)(=O)=O)cc6)cccn5n4)c3)CC2)CC1` [Example 58, [8-(4-Methanesulfonyl-phenyl)-[1,2,4]triazolo[1,5-a]pyridin-2-yl]-{3-[4-(4-methyl-piperazin-1-yl)-piperidin-1-yl]-phenyl}-amine]?
A: IC50 (human JAK2 [4]): 1.5 nM; IC50 (human FAK [1]): 2390 nM
